≈ marks a conversion by molar mass, not a printed value.
How the values were obtained:
Mus musculus [1] = assay: Analgesic activity in phenylbenzoquinone induced mouse assessed as reduction in writhing at 10 mg/kg, po measured after 1 hrs by writhing test relative to control; format: functional
Mus musculus [2] = assay: Analgesic activity in acetic acid peritonitis induced mouse assessed as reduction in writhing at 10 mg/kg, po measured after 1 hrs by writhing test relative to control; format: functional
Rattus norvegicus [3] = assay: Antiinflammatory activity in rat at assessed as reduction in paw edema relative to control; format: functional
[4] = tested on: Human immunodeficiency virus; assay: Antiviral activity against HIV infected in human H9 cells; format: functional, organism-based; conditions: Human immunodeficiency virus 1, H9
[5] = Therapeutic index, ratio of IC50 for antiviral activity against HIV infected in human H9 cells to EC50 for antiviral activity against HIV infected in human H9 cells; format: toxicity, cell-based; conditions: human immunodeficiency virus, H9 cells infected with HIV; read-out: Ratio IC50/EC50
Rattus norvegicus [6] = assay: Antiinflammatory activity in carrageenan induced rat at assessed as reduction in paw edema 50 mg/kg, ip measured after […] relative to control; format: functional; design: scale not given: the % may be the effect or the level left
MDA-MB-231 = assay: Anticancer activity against human MDA-MB-231 cells assessed as cell growth inhibition incubated for 24 hrs by MTT assay; format: functional, cell-based; conditions: MDA-MB-231, 24 h
HeLa = assay: Anticancer activity against human HeLa cells assessed as cell growth inhibition incubated for 24 hrs by MTT assay; format: functional, cell-based
Mus musculus [7] = assay: Sedative activity in mouse assessed as sleeping time at 300 mg/kg, ip; format: functional
[8] = Anticancer activity against human Epidermoid carcinoma cell line assessed as cell growth inhibition; format: functional; conditions: read-out: ED50 (the source's name)
Ovarian carcinoma cell = assay: Anticancer activity against human Ovarian carcinoma cell assessed as cell growth inhibition; format: functional; conditions: read-out: ED50 (the source's name)
Plasmodium falciparum = assay: Antimalarial activity against plasmodium falciparum 3D7 assessed as bacterial growth inhibition; format: functional, organism-based
[9] = Inhibition of HCV RNA IRES IIa by FRET assay; design: species or system Hepacivirus hominis
[10] = Cytotoxicity against human CEM/ADR5000 cells assessed as reduction in cell growth; format: toxicity, cell-based
Oryctolagus cuniculus [11] = assay: Antihypertensive activity in po dosed rabbit assessed as decrease in 30mmhg of systolic blood pressure measured after 4 to 6 hrs; format: functional; conditions: time 4-6 hrs
Rattus norvegicus [12] = assay: Inhibition of AII-induced hypertension in rat assessed as vasoconstrictor at 3 mg/kg, po measured after 2 hrs; format: functional
Oryctolagus cuniculus [13] = species on record: Oryctolagus cuniculus; assay: Antihypertensive activity in rabbit aorta assessed as vasodilation; format: functional
Vaccinia virus [14] = assay: Antiviral activity against Vaccinia virus infected in human E6SM cells; format: functional; conditions: Orthopoxvirus vaccinia
Vaccinia virus [15] = assay: Antiviral activity against Vaccinia virus infected in human MT4 cells measured after 5 days by MTT assay; format: functional, organism-based; conditions: Orthopoxvirus vaccinia, MT4, 120 h
MCF7 [16] = assay: Anticancer activity against human MCF7 cell assessed as cell growth inhibition measured after 48 hrs by SRB assay; format: functional, cell-based; conditions: MCF7, 48 h
Tubulin = assay: Inhibition of tubulin polymerization (unknown origin) incubated for 15 mins followed by GTP addition and measured for 20 mins by spectrophotometry; format: protein-complex assay, Homo sapiens
MCF7 [17] = assay: Cell cycle arrest in human MCF7 cells assessed as reduction in G2/M phase at 10 uM G2/M phase incubated for 24 hrs relative to control; format: functional
CA46 = assay: Cell cycle arrest in human CA46 cells assessed as reduction in G2/M phase at 10 uM incubated for 24 hrs relative to control; format: functional
[18] = biological target: 5-hydroxytryptamine receptor 2A (Homo sapiens, UniProt P28223); assay: Inhibition of 5-HT2A (unknown origin) assessed as inhibition constant
Chain of 5-hydroxytryptamine receptor 2A (P28223 whole entry): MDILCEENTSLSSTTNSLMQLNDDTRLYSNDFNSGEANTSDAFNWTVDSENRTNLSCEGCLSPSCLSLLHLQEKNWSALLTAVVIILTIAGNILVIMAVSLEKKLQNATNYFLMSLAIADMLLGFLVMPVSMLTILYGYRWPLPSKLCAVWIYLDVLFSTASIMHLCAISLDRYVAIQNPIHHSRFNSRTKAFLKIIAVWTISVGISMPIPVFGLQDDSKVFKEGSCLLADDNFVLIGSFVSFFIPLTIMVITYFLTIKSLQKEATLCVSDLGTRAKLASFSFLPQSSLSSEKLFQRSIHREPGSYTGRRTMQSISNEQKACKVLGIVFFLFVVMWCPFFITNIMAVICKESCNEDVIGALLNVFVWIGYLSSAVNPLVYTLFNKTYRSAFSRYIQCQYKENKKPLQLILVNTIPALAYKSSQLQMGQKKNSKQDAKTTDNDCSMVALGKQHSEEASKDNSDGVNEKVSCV

In the case of CCCCC1C(=O)N(c2ccccc2)N(c2ccccc2)C1=O [PHENYLBUTAZONE], the inhibition in vivo at 10 mg/kg (Mus musculus [1]) is reported as 25%, the inhibition in vivo at 10 mg/kg (Mus musculus [2]) is reported as 11% and the “inhibition (INH)” value (Rattus norvegicus [3]) is reported as 38.9%.
COc1cc2nc(-c3ccc4ccccc4c3)nc(O)c2cc1OC gave an EC50 [4] of 7590 nM, an IC50 [4] of 100000 nM and a selectivity ratio [5] of 13.2.
In the case of O=c1c2ccccc2nc(-c2ccccc2)n1-c1nc2ccccc2s1, the Activity (Rattus norvegicus [6]) is reported as 30.3%.
Compound COc1cccc2c(=O)n(Cc3ccccc3)c(SCCN3CCOCC3)nc12 has an IC50 (MDA-MB-231) of 1850 nM and an IC50 (HeLa) of 1850 nM.
With O=c1c2ccccc2nc(-c2cccnc2)n1-c1ccccc1F the Time (Mus musculus [7]) was 395.5 min.
For COc1cccc(-c2nc(O)c3cc(OC)ccc3n2)c1, the EC50 [8] was < 5 µg/mL and the EC50 (Ovarian carcinoma cell) was < 5 µg/mL.
In the case of C[C@@H]1CC[C@H]2[C@@H](C)C(=O)O[C@@H]3O[C@@]4(C)CC[C@@H]1[C@]32OO4 [ARTEMISININ], the EC50 (Plasmodium falciparum) is reported as 2.4 nM.
Compound CC1(C)NC(N)=Nc2ccccc21 has an EC50 [9] of 420000 nM.
Compound C[C@H]1[C@H](OC(=O)CCC(=O)O)O[C@@H]2O[C@@]3(C)CC[C@H]4[C@H](C)CC[C@@H]1[C@@]24OO3 [ARTESUNATE] has an EC50 [10] of 500 nM.
For CCNC(=O)OCc1nc2cc(C)c(C(=O)OCC)c(C)c2c(=O)n1-c1ccccc1Cl, the ED30 (Oryctolagus cuniculus [11]) was 0.35 mg/kg.
With CCCCc1nc2ccc([C@H]3OC[C@H]4[C@@H]3ON3[C@@H]4CCC3(C)C)cc2c(=O)n1Cc1ccc(-c2ccccc2-c2nn[nH]n2)cc1 the Activity (Rattus norvegicus [12]) was 70 mmHg.
For CC(=O)OC1C([N+](=O)[O-])c2ccc(Cl)cc2C(=O)N1[N+](=O)[O-] (centres undefined), the pD2 (Oryctolagus cuniculus [13]) was 5.4.
Work on CCc1nc(-n2c(-c3ccccc3)nc3ccc(Br)cc3c2=O)nc(N)c1-c1ccc(Cl)cc1 yielded an MIC (Vaccinia virus [14]) of 1.92 µg/mL (≈ 3.6 µM) and an IC50 (Vaccinia virus [15]) of 0.424 µg/mL (≈ 0.796 µM).
Cc1ccc2nc(SCCCN3C(=O)c4ccccc4C3=O)n(Cc3ccccc3)c(=O)c2c1 showed an IC50 (MDA-MB-231) of 1850 nM and an IC50 (HeLa) of 1850 nM.
CCOC(=O)c1c(C)cc2nc(COC(=O)NC)n(-c3ccccc3Cl)c(=O)c2c1C gave an ED30 (Oryctolagus cuniculus [11]) of 2.8 mg/kg.
Compound O=c1c2cc(Cl)ccc2nc(/C=C/c2ccccc2)n1-c1ncccn1 has an IC50 (MCF7 [16]) of 310 nM, an IC50 (Tubulin) of 5980 nM and an inhibition at 10 µM (MCF7 [17]) of 20%. The inhibition at 10 µM (CA46) was 66%.
O=c1c2c(Br)cc(Br)cc2nc(-c2ccccc2)n1-c1nc2ccccc2s1 gave an Activity (Rattus norvegicus [6]) of 21.3%.
Work on O=C(c1ccc(F)cc1)C1CCN(CCn2cnc3c(c2=O)CCCC3)CC1 yielded a Ki [18] of 7.59 nM.
Work on COc1cc2nc(-c3ccccc3F)nc(O)c2cc1OC yielded an EC50 [4] of 10900 nM, an IC50 [4] of 100000 nM and a selectivity ratio [5] of 9.17.
Work on COc1cccc2c(=O)n(Cc3ccccc3)c(SCCCN3C(=O)c4ccccc4C3=O)nc12 yielded an IC50 (MDA-MB-231) of 1850 nM and an IC50 (HeLa) of 1850 nM.
